Data: US12280121B2, “Immunoconjugates and methods” (Immunome, Inc., priority 2021, dated 2025)
Read-outs that look alike come from different tables or passages of the source. Non-standard residues stand in square brackets, D forms with d. Residues, ends and D or L forms follow the SMILES beside them. *: point of attachment. Dolaproine = CO[C@@H]([C@@H]1CCCN1)[C@@H](C)C(=O)O; Dil = CC[C@H](C)[C@H](NC)[C@@H](CC(=O)O)OC; X1 = C[C@@H](N*)[C@@H](O)c1ccccc1; NMeV = CN[C@H](C(=O)O)C(C)C

Assays:
[1] = AC-SINS self-interaction assay; type: physicochemical; settings: FIG. 30
Description: Antibody developability was assessed by performing an AC-SINS assay and evaluating the potential for self-interaction.
An initial assessment of antibody developability was performed by AC-SINS to evaluate the potential for self-interaction (FIG. 30).

[2] = tested on: Jeko-1; assay: CTG assay of ROR-1 ADCs and toxins, JeKo-1; type: cell-based
Description: FIG. 33 illustrates a CTG assay wherein ROR+ (JeKo-1) cells were incubated with the ADCs generated as described in FIG. 32 in serial three-fold dilutions and cell viability was assessed after 72 hours.
(§1) The CTG assay is a method of determining the number of viable cells in culture based on quantitation of the ATP present, an indicator of metabolically active cells. The cell assay requires the addition of a single reagent, Cell Titer Glo, in which cells are lysed and generation of a luminescent signal is produced. The luminescent signal is proportional to the amount of ATP present. The amount of ATP is directly proportional to the number of cells present in culture. For our assay, cells were ensured to be in log-phase for either Jeko-1 or MDA-MB-468. Cells were transferred to 96 wells and treated with compounds in three-fold serial dilution starting from 1 μM to 0.0000508 μM (10 points dilution), for 72 h. Cell viability was analyzed with CellTiter-Glo® Luminescent Cell Viability Assay (Promega) following manufactures' instruction. Percentage of viable cells in each compound concentration was determined by normalizing with the luminescence of vehicle control and plotted into percentage of viability versus dose response curve by nonlinear fit in GraphPad Prism software.
Novel ROR-1 antibody-drug conjugates (ADCs) were evaluated by CTG Assay in a similar manner as was described in Example 24 for screening of payloads. […] Briefly ROR+(JeKo-1/MDA-MB-468) or ROR− (Ramos) cells were transferred to 96 wells and treated with the ADCs in three-fold serial dilution starting from […] (10 points dilution), for 72 h. Cell viability was analyzed with CellTiter-Glo® Luminescent Cell Viability Assay (Promega) following the manufactures' instructions (FIG. 33). The percentage of viable cells at each ADC concentration was determined by normalizing with the luminescence of vehicle control and plotted into percentage of viability versus dose response curve by nonlinear fit in GraphPad Prism software.

[3] = tested on: MDA-MB-468; assay: CTG assay (CellTiter-Glo cell viability), MDA-MB-468, payload compounds; type: cell-based
From the text: as §1

[4] = Human liver microsome clearance (HLM CL); type: in vitro ADME
Description: (§2) Working solution was prepared by adding 5 μL of compound and control stock solution (10 mM in dimethyl sulfoxide, DMSO) to 495 μL of acetonitrile (ACN) (intermediate solution concentration: 100 μM, 99% CAN and 1% DMSO. The appropriate concentrations of microsome working solutions were prepared in 100 mM potassium phosphate buffer. After reaction plates containing mixtures of compound and microsomes were pre-incubated at 37° C. for 10 min, […] of 2 mM of NADPH and 2 mM of MgCl2 solution was added to start the reaction. The final concentrations of incubation medium were as follows: microsome—0.5 mg protein/mL, test compound/control […], NADPH—1 mM, MgCl2 —1 mM, acetonitrile 0.99%, DMSO 0.01%. Incubations were performed at 37° C. for 60 min. Samples were taken out at TO, T5, T15, T30, T45 and T60, which was added intermediately to the ice-cold stop solution (acetonitrile with 200 ng/mL of tobutamide and labetalol as internal standard) (125 μl), shaken for 10 min, centrifuged at 4000 rpm for 20 min at 4° C. Analytical plates were analyzed by LCMS.
(§3) Human liver microsome clearance assay assess metabolism by the cytochrome P450 system (phase I enzymes). These enzymes oxidize substrates by incorporating oxygen atoms into hydrocarbons, thus causing the introduction of hydroxyl groups, or N- O- and S-dealkylation of substrates and forming more polar products easier to be cleared. Human hepatocyte clearance assay measures more broadly the overall cellular metabolism of the test compound (phase I and phase II enzyme pathways). Phase II enzymes catalyze the conjugation reaction of xenobiotic metabolites and charged species, such as glutathione, sulfate, glycine, or glucuronic acid to form even more polar compounds for easier clearance.

[5] = tested on: Jeko-1; assay: CTG assay (CellTiter-Glo cell viability), Jeko-1, payload compounds; type: cell-based
From the text: as §1

[6] = PAMPA (Parallel Artificial Membrane Permeability Assay); type: physicochemical
From the text: PAMPA is a method which determines the permeability of substances from a donor compartment, through a lipid-infused artificial membrane into an acceptor compartment. See Ottaviani, G.; Martel, S.; Carrupt, P-A. “Parallel Artificial Membrane Permeability Assay: A New Membrane for the Fast Prediction of Passive Human Skin Permeability”, Journal of Medicinal Chemistry, 2006, 49 (13), 3948-3954). A multi-well microtitre plate is used for the donor and a membrane/acceptor compartment is placed on top; the whole assembly is commonly referred to as a “sandwich”. At the beginning of the test, the drug is added to the donor compartment, and the acceptor compartment is drug-free. After an incubation period which may include stirring, the sandwich is separated, and the amount of drug is measured in each compartment. Mass balance allows calculation of drug that remains in the membrane.
The PAMPA was performed by Pion Inc using the GIT-0 lipid and 5 μM donor solution in pH 5.0 and pH 7.4 PRISMA buffer (containing 0.05% DMSO). The higher PAMPA data has been associated with better bystander killing. (Ogitani Y.; Hagihara K.; Oitate, M.; Naito, H.; Agatsuma T. “Bystander killing effect of DS-8201a, a novel anti-human epidermal growth factor receptor 2 antibody-drug conjugate, in tumors with human epidermal growth factor receptor 2 heterogeneity” Cancer Science, 2016, 107 (7), 1039-1046).

[7] = Human hepatocyte clearance (HHEP CL); type: in vitro ADME; set-up: CLint scaled / half-life: dose or concentration left out as unconfirmed; settings: both sexes
Description: (§4) Suspensions of human hepatocytes (from 10 mixed gender human donors, final concentration 0.5×10^6 cell/mL) in Williams' E medium were incubated for 90 min with a test compound (0.90% acetonitrile and 0.10% DMSO, final concentration […]) and positive controls (7-Ethoxycoumarin, 7-Hydroxycoumarin, 0.90% acetonitrile and 0.10% DMSO, final concentration […]), with constant shaking at about 600 rpm at 37° C. in an incubator at 5% CO2 and 95% humidity. The total volume of incubation was 200 μl. A sample ([…]) was taken out at TO, 15, 30, 60 and 90 min, which was added intermediately to the ice-cold stop solution (acetonitrile with 200 ng/mL of tobutamide and labetalol as internal standard) (125 μl), and vortexed at 500 rpm for 10 min, centrifuged at 3220×g for 20 min at 4° C. Analytical plates are sealed and stored at 4° C. until LCMS analysis. Viability of hepatocytes at pre-incubation was determined to be 84.5%.
as §3

[8] = tested on: human liver microsome; assay: Human liver microsome clearance (HLM CL); type: in vitro ADME; settings: human liver microsomes 0.5 mg protein/mL, NADPH, 60 min
Description: as §2, §3

[9] = tested on: human hepatocytes; assay: Human hepatocyte clearance (HHEP CL); type: in vitro ADME; set-up: CLint scaled / half-life: dose or concentration left out as unconfirmed; settings: human hepatocytes, 90 min incubation
Description: as §4, §3

[10] = Jeko-1, average of run 1 and run 2, read-out: Avg. IC50
[11] = Jeko-1 P3, run 1, 72 h, read-out: Jeko-1 P3 (RUN1) IC50
[12] = Homo sapiens, MDA-MB-468, 72 h, CellTiter-Glo, read-out: MDA-MB-468 IC50
[13] = Homo sapiens, JeKo-1, 72 h, CellTiter-Glo, read-out: JeKo-1 IC50
[14] = Homo sapiens, Jeko-1, average of run 1 and run 2, read-out: Avg. IC50
[15] = Homo sapiens, Jeko-1 P3, run 1, 72 h, read-out: Jeko-1 P3 (RUN1) IC50
[16] = Homo sapiens, Jeko-1 P4, run 2, 72 h, read-out: Jeko-1 P4 (RUN2) IC50
[17] = human liver microsomes 0.5 mg protein/mL, NADPH, 60 min, read-out: HLM Cl (human liver microsome clearance)

## Adalimumab
[1]
  AC-SINS shift (self-interaction): low shift

## CC[C@H](C)[C@@H]([C@@H](CC(=O)N1CCC[C@H]1[C@H](OC)[C@@H](C)C(=O)N[C@H](C)[C@@H](O)c1ccccc1)OC)N(C)C(=O)[C@@H](NC(=O)[C@@H](NC)C(C)C)C(C)C [MMAE, reference compound] (H-[NMeV]V[Dil][Dolaproine]-X1)
[2]; [10]
  IC50: 0.2 nM
[2]; [11]
  IC50: 0.2 nM
[2]; Jeko-1 P4, run 2, 72 h, read-out: Jeko-1 P4 (RUN2) IC50
  IC50: 0.2 nM

## CC[C@@]1(O)C(=O)OCc2c1cc1n(c2=O)Cc2c-1nc1cc(F)c(C)c3c1c2[C@@H](OCCO)CC3 (single isomer, unassigned) [Compound 5-48]
[3]; [12]
  IC50: 8.3 nM
[4]; human, microsomes
  CLint scaled: 17.4 mL/min/kg
  half-life: 1.2 h
[5]; [13]
  IC50: 0.68 nM
[2]; [14]
  IC50: 0.5 nM
[2]; [15]
  IC50: 0.5 nM
[2]; [16]
  IC50: 0.5 nM
[6]; pH 5
  Papp at 5 μM: 69 ×10⁻⁶ cm/s
[6]; pH 7.4
  Papp at 5 μM: 9 ×10⁻⁶ cm/s
[7]; human, hepatocytes
  CLint scaled: 75.5 mL/min/kg
  half-life: 0.852 h

## CC[C@@]1(O)C(=O)OCc2c1cc1n(c2=O)Cc2c-1nc1cc(F)c(C)c3c1c2[C@@H](NC(=O)CO)CC3 [Dxd, reference compound]
[3]; 72 h, CellTiter-Glo, read-out: MDA-MB-468 IC50
  IC50: 11.6 nM
[8]
  HLM (T1/2): (>145)
  HLM Cl (human liver microsome clearance): 8.6 mL/min/kg
[5]; 72 h, CellTiter-Glo, read-out: JeKo-1 IC50
  IC50: 1.42 nM
[2]; [10]
  IC50: 0.9 nM
[2]; [11]
  IC50: 0.9 nM
[9]
  HHEP (T1/2): (79.0) min
  HHEP Cl (human hepatocytes intrinsic clearance): 48.7 mL/min/kg

## CC[C@@]1(O)C(=O)OCc2c1cc1n(c2=O)Cc2c-1nc1cc(F)c(C)c3c1c2[C@@](C)(NC(=O)CO)CC3 [Compound 9-74, N-((1S,9S)-9-ethyl-5-fluoro-9-hydroxy-1,4-dimethyl-10,13-dioxo-1,2,3,9,10,12,13,15-octahydrobenzo[de]pyrano[3′,4′:6,7]indolizino[1,2-b]quinolin-1-yl)-2-hydroxyacetamide]
[3]; [12]
  IC50: 57.7 nM
[4]; human, microsomes
  CLint scaled: 22.7 mL/min/kg
  half-life: 0.915 h
[5]; [13]
  IC50: 4.1 nM
[2]; [14]
  IC50: 3.1 nM
[2]; [15]
  IC50: 2.4 nM
[2]; [16]
  IC50: 3.7 nM
[6]; pH 5
  Papp at 5 μM: 36.1 ×10⁻⁶ cm/s
[6]; pH 7.4
  Papp at 5 μM: 4.4 ×10⁻⁶ cm/s
[7]; human, hepatocytes
  CLint scaled: 57.5 mL/min/kg
  half-life: 1.12 h

## CC[C@@]1(O)C(=O)OCc2c1cc1n(c2=O)Cc2c-1nc1cc(F)c(C)c3c1c2[C@@](C)(NCCO)CC3.Cl [Compound 16-95, (1S,9S)-9-ethyl-5-fluoro-9-hydroxy-1-((2-hydroxyethyl)amino)-1,4-dimethyl-2,3,12,15-tetrahydrobenzo[de]pyrano[3′,4′:6,7]indolizino[1,2-b]quinoline-10,13(1H,9H)-dione hydrochloride]
[3]; [12]
  IC50: 13.7 nM
[4]; human liver microsomes 0.5 mg protein/mL, NADPH, 60 min, read-out: HLM (T1/2)
  half-life: 0.818 h
[4]; [17]
  CLint scaled: 25.4 mL/min/kg
[5]; [13]
  IC50: 1.3 nM
[6]; pH 5.0 PRISMA buffer, GIT-0 lipid, 5 μM donor solution, read-out: PAMPA Pe pH 5.0
  Papp at 5 μM: 63.1 ×10⁻⁶ cm/s
[6]; pH 7.4 PRISMA buffer, GIT-0 lipid, 5 μM donor solution, read-out: PAMPA Pe pH 7.4
  Papp at 5 μM: 5.5 ×10⁻⁶ cm/s
[7]; human hepatocytes, 90 min incubation, read-out: HHEP (T1/2)
  half-life: 2.17 h
[7]; human hepatocytes, 90 min incubation, read-out: HHEP Cl (human hepatocytes intrinsic clearance)
  CLint scaled: 29.6 mL/min/kg

## CC[C@@]1(O)C(=O)OCc2c1cc1n(c2=O)Cc2c-1nc1cc(F)c(C)c3c1c2[C@@H](N)CC3.CS(=O)(=O)O [Exatecan, (1S,9S)-1-amino-9-ethyl-5-fluoro-9-hydroxy-4-methyl-2,3,12,15-tetrahydro-benzo[de]pyrano [3′,4′:6,7]indolizino[1,2-b]quinoline-10,13(1H,9H)-dione methanesulfonate, reference compound]
[3]; Homo sapiens, MDA-MB-468, 72 h, read-out: MDA-MB-468 IC50 (nM)
  IC50: 6.2 nM
[4]; [17]
  CLint scaled: 11.7 mL/min/kg
[4]; human, microsomes
  half-life: 1.77 h
[5]; Homo sapiens, JeKo-1, 72 h, read-out: JeKo-1 IC50 (nM)
  IC50: 0.59 nM
[6]; pH 5
  Papp: 37.2 ×10⁻⁶ cm/s
[6]; pH 7.4
  Papp: 5.7 ×10⁻⁶ cm/s
[7]; human hepatocytes in suspension, human hepatocytes, 90 min incubation, read-out: HHEP Cl (human hepatocytes intrinsic clearance)
  CLint scaled: 59.3 mL/min/kg
[7]; human, hepatocytes
  half-life: 1.08 h
